Measured values as given in article PMC5926251 (Japanese Journal of Cancer Research : Gann, 2000).
In brackets after ≈: the same amount, converted by molar mass. Several values for one entry are separate records, joined by “and”; a condition that tells them apart may be missing. Equal values may be shown once. Read-outs that look alike come from different tables or passages of the source. Each block holds one molecule with its values, some of them ahead of it.

Legend:
[1] = biological target: T1, DNA polymerase β (Rattus norvegicus, UniProt P06766); assay: DNA polymerase assay, pol. β; assay type: biochemical; details: for MIC Pol. β: Minimum inhibitory concentration: dose that resulted in inhibition of 80% or more of the activity; for Relative activity: Pol. β, Table III
[2] = biological target: T2, DNA polymerase α (Bos taurus, UniProt A0AAA9TD94); assay: DNA polymerase assay, pol. α; assay type: biochemical, calf; details: for MIC Pol. α: Minimum inhibitory concentration: dose that resulted in inhibition of 80% or more of the activity; for MIC Pol. α / IC50: Table I; for IC50: 50%-inhibitory concentration; for Relative activity: Pol. α, Table III
T2 sequence (A0AAA9TD94 1-1441): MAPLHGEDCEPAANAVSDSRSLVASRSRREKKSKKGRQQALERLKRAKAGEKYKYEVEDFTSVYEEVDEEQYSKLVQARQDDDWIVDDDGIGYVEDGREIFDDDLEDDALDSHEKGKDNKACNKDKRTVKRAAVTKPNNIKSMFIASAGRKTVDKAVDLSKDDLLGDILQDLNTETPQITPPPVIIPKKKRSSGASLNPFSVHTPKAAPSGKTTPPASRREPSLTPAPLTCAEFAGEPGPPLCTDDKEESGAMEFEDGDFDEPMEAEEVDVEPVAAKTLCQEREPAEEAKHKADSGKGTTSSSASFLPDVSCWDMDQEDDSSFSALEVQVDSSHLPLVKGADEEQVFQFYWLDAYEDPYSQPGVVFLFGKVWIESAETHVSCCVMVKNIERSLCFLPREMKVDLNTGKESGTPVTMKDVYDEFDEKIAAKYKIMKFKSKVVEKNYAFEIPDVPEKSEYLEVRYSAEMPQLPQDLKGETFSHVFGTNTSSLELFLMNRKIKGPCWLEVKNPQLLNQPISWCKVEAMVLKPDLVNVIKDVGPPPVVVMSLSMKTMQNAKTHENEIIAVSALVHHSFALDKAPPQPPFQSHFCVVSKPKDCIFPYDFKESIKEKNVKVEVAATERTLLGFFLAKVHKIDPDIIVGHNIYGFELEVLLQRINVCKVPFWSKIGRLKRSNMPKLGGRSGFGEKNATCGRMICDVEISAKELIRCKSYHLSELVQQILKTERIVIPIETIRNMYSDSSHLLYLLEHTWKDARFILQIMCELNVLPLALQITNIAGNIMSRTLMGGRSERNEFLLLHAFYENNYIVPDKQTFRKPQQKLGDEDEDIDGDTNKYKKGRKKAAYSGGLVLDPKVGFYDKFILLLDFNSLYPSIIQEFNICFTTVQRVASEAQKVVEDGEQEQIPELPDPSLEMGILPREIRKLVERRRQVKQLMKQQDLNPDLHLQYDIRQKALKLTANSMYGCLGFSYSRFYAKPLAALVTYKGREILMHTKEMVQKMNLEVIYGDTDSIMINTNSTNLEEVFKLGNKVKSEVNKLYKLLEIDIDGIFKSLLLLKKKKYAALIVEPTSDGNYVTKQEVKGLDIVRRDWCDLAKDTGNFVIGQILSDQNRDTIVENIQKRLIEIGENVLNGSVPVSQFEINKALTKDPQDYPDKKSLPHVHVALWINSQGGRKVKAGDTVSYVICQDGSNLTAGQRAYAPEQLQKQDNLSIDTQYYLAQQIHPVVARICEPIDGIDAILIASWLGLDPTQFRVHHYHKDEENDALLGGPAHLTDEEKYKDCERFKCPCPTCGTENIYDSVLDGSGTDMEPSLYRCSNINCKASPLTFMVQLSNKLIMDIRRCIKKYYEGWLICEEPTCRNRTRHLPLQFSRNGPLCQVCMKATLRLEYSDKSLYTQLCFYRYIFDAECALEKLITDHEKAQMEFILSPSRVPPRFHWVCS

[3] = biological target: E. coli DNA polymerase I (Escherichia coli, UniProt P00582); assay: E. coli DNA polymerase I activity assay; assay type: biochemical; details: 20 µM compound, 0.05 units enzyme; Fig. 3
Sequence of E. coli DNA polymerase I (P00582 whole entry): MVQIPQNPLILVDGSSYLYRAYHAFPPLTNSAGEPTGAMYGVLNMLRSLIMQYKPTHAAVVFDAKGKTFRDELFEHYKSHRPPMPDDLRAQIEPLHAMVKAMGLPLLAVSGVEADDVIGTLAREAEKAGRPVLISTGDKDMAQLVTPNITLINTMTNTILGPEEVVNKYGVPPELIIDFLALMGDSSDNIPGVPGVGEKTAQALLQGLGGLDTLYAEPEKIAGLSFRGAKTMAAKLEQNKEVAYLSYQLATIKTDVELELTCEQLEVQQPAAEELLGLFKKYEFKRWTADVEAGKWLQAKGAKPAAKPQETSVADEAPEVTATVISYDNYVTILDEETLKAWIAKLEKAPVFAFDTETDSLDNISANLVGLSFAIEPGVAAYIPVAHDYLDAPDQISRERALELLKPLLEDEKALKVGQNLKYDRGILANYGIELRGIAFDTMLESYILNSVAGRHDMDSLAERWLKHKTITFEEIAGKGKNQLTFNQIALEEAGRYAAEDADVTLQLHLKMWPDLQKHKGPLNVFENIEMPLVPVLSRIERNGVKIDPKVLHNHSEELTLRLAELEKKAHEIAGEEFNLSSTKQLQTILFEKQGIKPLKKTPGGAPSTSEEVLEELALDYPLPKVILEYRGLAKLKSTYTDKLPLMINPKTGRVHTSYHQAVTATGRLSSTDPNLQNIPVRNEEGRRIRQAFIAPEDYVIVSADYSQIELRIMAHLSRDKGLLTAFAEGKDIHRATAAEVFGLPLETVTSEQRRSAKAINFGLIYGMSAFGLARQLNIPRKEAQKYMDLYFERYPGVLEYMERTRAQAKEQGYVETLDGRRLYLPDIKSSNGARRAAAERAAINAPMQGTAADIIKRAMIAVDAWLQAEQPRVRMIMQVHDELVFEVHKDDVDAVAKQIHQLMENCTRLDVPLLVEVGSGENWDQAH

[4] = biological target: T1, DNA polymerase β; assay: Kinetic analysis of pol. β inhibition; assay type: biochemical; details: for Inhibitory mode: from Lineweaver Burk plot
[5] = biological target: HIV-1 reverse transcriptase (Human immunodeficiency virus type 1 group M subtype B, UniProt P03366); assay: HIV-1 reverse transcriptase activity assay; assay type: biochemical; details: 20 µM compound, 0.05 units enzyme; Fig. 3
[6] = biological target: T4 polynucleotide kinase (Enterobacteria phage T4, UniProt P06855); details: 20 µM compound, 0.05 units enzyme; Fig. 3
Sequence of T4 polynucleotide kinase (P06855 whole entry): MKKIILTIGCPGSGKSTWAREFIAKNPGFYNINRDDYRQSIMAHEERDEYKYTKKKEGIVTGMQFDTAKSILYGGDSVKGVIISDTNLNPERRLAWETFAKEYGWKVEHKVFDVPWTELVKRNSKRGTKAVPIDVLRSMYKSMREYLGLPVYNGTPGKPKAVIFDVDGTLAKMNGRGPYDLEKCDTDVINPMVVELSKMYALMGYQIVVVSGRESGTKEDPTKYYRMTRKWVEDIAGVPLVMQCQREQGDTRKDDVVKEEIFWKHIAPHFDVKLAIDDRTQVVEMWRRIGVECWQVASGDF

[7] = biological target: T3, T4 DNA polymerase (Enterobacteria phage T4, UniProt P04415); assay: T4 DNA polymerase activity assay; assay type: biochemical; details: 20 µM compound, 0.05 units enzyme; Fig. 3
T3 sequence (P04415 1-898): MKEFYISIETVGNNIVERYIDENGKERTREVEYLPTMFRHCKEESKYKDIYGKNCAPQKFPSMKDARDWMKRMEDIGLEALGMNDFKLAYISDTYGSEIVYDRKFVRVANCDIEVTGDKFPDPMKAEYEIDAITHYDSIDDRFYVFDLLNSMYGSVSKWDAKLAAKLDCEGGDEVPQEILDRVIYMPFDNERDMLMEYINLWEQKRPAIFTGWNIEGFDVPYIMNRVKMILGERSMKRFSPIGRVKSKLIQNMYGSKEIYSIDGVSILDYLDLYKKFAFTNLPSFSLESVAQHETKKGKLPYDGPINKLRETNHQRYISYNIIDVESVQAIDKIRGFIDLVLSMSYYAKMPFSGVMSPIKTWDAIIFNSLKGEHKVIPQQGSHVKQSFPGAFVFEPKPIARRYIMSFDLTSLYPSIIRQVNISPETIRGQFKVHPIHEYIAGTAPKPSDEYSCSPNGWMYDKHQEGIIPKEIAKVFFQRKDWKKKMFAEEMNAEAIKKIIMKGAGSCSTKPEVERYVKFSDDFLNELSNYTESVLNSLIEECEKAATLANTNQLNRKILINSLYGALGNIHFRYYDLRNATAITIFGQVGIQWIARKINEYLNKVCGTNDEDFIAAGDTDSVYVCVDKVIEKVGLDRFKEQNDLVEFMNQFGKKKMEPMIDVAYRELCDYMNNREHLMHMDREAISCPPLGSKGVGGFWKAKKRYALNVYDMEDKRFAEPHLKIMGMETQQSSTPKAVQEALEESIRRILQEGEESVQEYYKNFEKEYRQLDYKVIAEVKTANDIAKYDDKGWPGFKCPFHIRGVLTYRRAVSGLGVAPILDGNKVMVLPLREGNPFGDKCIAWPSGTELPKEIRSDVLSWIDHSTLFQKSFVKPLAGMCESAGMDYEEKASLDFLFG

[8] = biological target: T7 RNA polymerase (Escherichia phage T7, UniProt P00573); details: 20 µM compound, 0.05 units enzyme; Fig. 3
Sequence of T7 RNA polymerase (P00573 whole entry): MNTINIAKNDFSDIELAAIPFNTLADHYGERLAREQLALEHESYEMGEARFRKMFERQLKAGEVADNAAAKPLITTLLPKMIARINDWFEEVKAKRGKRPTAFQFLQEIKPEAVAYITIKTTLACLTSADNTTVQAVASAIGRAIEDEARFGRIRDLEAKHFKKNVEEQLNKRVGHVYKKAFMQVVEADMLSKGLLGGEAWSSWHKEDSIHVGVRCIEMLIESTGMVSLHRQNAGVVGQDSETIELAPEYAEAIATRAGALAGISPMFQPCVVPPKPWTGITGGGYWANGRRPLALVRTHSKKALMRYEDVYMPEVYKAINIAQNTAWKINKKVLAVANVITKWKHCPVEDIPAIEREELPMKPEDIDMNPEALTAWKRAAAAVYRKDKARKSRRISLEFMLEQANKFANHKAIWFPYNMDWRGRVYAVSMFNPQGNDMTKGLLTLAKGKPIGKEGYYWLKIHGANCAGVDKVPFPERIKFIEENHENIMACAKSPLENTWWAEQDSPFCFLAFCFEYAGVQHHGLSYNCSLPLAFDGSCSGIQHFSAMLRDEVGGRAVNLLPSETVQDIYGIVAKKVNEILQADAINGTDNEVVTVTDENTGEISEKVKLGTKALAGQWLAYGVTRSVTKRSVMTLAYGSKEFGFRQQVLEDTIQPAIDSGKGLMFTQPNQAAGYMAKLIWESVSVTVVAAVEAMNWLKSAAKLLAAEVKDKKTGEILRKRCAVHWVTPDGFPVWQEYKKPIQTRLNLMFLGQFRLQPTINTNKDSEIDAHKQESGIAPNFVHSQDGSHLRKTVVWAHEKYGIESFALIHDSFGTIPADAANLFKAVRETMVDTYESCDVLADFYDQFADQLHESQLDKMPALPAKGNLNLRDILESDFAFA

[9] = biological target: Taq DNA polymerase (Thermus aquaticus, UniProt P19821); assay: Taq DNA polymerase activity assay; assay type: biochemical; details: 20 µM compound, 0.05 units enzyme; Fig. 3
Sequence of Taq DNA polymerase (P19821 whole entry): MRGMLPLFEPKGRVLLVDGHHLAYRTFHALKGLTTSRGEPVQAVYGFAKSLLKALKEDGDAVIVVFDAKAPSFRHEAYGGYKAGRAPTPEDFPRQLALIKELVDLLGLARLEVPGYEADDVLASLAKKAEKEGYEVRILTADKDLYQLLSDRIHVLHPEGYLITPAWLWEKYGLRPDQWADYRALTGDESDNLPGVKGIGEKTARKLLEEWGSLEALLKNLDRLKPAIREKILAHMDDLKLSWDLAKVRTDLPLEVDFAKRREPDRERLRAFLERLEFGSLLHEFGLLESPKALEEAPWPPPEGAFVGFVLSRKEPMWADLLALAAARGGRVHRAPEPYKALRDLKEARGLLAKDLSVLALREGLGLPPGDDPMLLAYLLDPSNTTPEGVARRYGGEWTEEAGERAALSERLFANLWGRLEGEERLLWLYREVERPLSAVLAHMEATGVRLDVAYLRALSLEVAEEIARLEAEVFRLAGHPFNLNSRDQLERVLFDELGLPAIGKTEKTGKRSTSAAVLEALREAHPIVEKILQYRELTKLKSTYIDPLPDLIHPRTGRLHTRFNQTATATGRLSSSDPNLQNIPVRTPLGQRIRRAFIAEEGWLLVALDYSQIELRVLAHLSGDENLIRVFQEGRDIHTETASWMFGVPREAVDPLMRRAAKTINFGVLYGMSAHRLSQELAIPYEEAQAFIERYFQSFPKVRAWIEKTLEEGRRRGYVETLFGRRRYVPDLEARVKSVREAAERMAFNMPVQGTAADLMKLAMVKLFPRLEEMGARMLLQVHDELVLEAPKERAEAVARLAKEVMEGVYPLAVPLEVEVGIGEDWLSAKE

[10] = biological target: calf thymus TdT (Bos taurus, UniProt P06526); assay: TdT activity assay; assay type: biochemical; details: 20 µM compound, 0.05 units enzyme; Fig. 3
Sequence of calf thymus TdT (P06526 whole entry): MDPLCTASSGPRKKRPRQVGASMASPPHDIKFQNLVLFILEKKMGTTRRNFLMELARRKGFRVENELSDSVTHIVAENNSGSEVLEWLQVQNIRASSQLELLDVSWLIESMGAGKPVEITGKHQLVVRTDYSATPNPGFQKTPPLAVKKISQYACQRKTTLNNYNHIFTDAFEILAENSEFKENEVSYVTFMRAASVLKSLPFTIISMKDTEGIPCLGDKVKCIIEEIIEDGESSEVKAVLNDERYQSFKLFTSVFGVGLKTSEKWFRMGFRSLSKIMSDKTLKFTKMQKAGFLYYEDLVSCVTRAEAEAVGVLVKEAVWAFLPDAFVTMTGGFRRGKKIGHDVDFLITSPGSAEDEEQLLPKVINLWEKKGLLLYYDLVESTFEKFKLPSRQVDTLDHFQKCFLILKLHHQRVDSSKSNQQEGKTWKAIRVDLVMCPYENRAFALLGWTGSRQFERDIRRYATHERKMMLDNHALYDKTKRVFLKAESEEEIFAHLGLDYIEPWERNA

[11] = biological target: Bovine pancreas deoxyribonuclease I (Bos taurus, UniProt P00639); assay: Deoxyribonuclease I activity assay; assay type: biochemical; details: 20 µM compound, 0.05 units enzyme; Fig. 3
Sequence of Bovine pancreas deoxyribonuclease I (P00639 23-282): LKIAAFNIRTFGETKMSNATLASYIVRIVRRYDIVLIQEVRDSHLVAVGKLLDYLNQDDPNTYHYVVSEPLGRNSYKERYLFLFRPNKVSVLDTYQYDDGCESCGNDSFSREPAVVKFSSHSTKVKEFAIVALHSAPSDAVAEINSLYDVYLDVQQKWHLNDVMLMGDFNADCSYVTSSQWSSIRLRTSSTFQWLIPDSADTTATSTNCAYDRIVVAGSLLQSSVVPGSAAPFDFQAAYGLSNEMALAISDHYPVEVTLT

[12] = biological target: T2, DNA polymerase α; assay: Kinetic analysis of pol. α inhibition; assay type: biochemical, calf; details: for Inhibitory mode: from Lineweaver Burk plot
[13] = read-out: IC50 Pol. β, 50%-inhibitory concentration, Table I
[14] = nucleotide substrate dTTP, from Dixon plot
[15] = template-primer poly(dA)/oligo(dT)12-18, from Dixon plot
[16] = versus nucleotide substrate dTTP

SMILES: CCCCCCCCCCCCCC(=O)OCC(CO)OC(=O)CCCCCCCCCCCCC (stereo not drawn)
IC50 [1, 13]: > 1000 µM | MIC Pol. α [2]: > 1000 µM | IC50 ([2]; read-out: IC50 Pol. α): 550 µM

SMILES: O=S(=O)(O)C[C@@H]1OC(OCC(O)CO)[C@@H](O)[C@H](O)[C@@H]1O (stereo partly drawn) [I&II&III + Fucose + -]
IC50 [1, 13]: > 1000 µM | IC50 ([2]; read-out: IC50 Pol. α): > 1000 µM

SMILES: C[C@@H]1OC(OCC(O)CO)[C@H](O)[C@H](O)[C@H]1O (stereo partly drawn) [II&III - Rhamnose + -]
IC50 [1, 13]: > 1000 µM | IC50 ([2]; read-out: IC50 Pol. α): > 1000 µM

SMILES: CCCCCCCCCCCCCCCCCC(=O)OC[C@H](CO[C@H]1O[C@H](CS(=O)(=O)O)[C@@H](O)[C@H](O)[C@H]1O)OC(=O)CCCCCCCCCCCCCCCCC [C18--SQDG]
Effect on E. coli DNA polymerase I activity [3]: hardly affected | MIC Pol. β ([1]; Table I): 60 µM and 62 µM | Relative activity ([1]; 20 µM compound + 40 µM poly(rC)): 59% | Relative activity ([1]; 20 µM compound + 0.05% NP-40): 101% | Relative activity ([1]; 20 µM compound + 80 g/ml BSA): 63% | Relative activity ([1]; 20 µM compound alone): 65% | IC50 [1, 13]: 37 µM and 43 µM | Ki [4, 14]: 36 µM | Vmax ([4]; nucleotide substrate dTTP, one value printed for all sulfolipid conc.): 38 pmol/h | Ki [4, 15]: 5 µM | Inhibitory mode [4, 16]: Competitive | Inhibitory mode ([4]; versus template-primer): Competitive | Effect on HIV-1 reverse transcriptase activity [5]: moderate inhibitory effect | Effect on T4 polynucleotide kinase activity [6]: hardly affected | Effect on T4 DNA polymerase activity [7]: hardly affected | Effect on T7 RNA polymerase activity [8]: hardly affected | Effect on Taq DNA polymerase activity [9]: hardly affected | Effect on TdT activity [10]: inhibited | Effect on deoxyribonuclease I activity [11]: hardly affected | Ki [12, 14]: 0.6 µM | Vmax ([12]; nucleotide substrate dTTP, sulfolipid conc. 0.2): 170 pmol/h | Vmax ([12]; nucleotide substrate dTTP, sulfolipid conc. 0.4): 100 pmol/h | Vmax ([12]; nucleotide substrate dTTP, sulfolipid conc. 0.6): 56 pmol/h | Ki [12, 15]: 0.2 µM | Vmax ([12]; template-primer, sulfolipid conc. 0.2): 100 pmol/h | Vmax ([12]; template-primer, sulfolipid conc. 0.4): 56 pmol/h | Vmax ([12]; template-primer, sulfolipid conc. 0.6): 40 pmol/h | Inhibitory mode [12, 16]: Non-competitive | Inhibitory mode ([12]; versus template-primer): Non-competitive | MIC Pol. α [2]: 1.1 µM and 1.2 µM | Relative activity ([2]; 2 µM compound + 40 µM poly(rC)): 12% | Relative activity ([2]; 2 µM compound + 0.05% NP-40): 15% | Relative activity ([2]; 2 µM compound + 80 g/ml BSA): 16% | Relative activity ([2]; 2 µM compound alone): 10% | IC50 ([2]; read-out: IC50 Pol. α): 0.4 µM

SMILES: C[C@H]1OC(O)[C@H](O)[C@@H](O)[C@@H]1O (stereo partly drawn) [II - Quinovose - -, Quinovose]
IC50 [1]: > 1000 µM | IC50 ([2]; IC50 Pol. α): > 1000 µM

SMILES: CCCCCCCCCCCCCCCC(=O)OCC(CO)OC(=O)CCCCCCCCCCCCCCC (stereo not drawn)
IC50 [1, 13]: > 1000 µM | MIC Pol. α [2]: > 1000 µM | IC50 ([2]; read-out: IC50 Pol. α): 470 µM

Now from value to molecule, other results behind:

MIC Pol. β ([1]; Table I): 37 µM and 40 µM | IC50 [1, 13]: 23 µM and 20 µM
SMILES: CCCCCCCCCCCCCC(=O)OC[C@H](CO[C@H]1O[C@H](CS(=O)(=O)O)[C@@H](O)[C@H](O)[C@H]1O)OC(=O)CCCCCCCCCCCCC [C14--SQDG]
MIC Pol. α [2]: 5.3 µM and 5.2 µM | IC50 ([2]; read-out: IC50 Pol. α): 1.8 µM and 1.9 µM

IC50 [1]: 290 µM | MIC Pol. β ([1]; Table I): 500 µM (≈ 128 µg/mL)
SMILES: CCCCCCCCCCCCCCCC(=O)O [Palmitic acid (16:0), Palmitic acid, reference compound]
IC50 ([2]; IC50 Pol. α): 42 µM | MIC Pol. α [2]: 100 µM (≈ 25.6 µg/mL)

IC50 [1, 13]: > 1000 µM
SMILES: C[C@@H]1OC(OCC(O)CO)[C@@H](O)[C@H](O)[C@@H]1O (stereo partly drawn) [II&III - Fucose + -]
IC50 ([2]; read-out: IC50 Pol. α): > 1000 µM
